Data published in patent US20150192565A1, “METHOD FOR EVALUATING THERAPEUTIC EFFECT OF T[…] APPLICATION THEREOF” (NATIONAL TAIWAN UNIVERSITY, priority 2014, published 2015).

What was measured:
HCC [1] = assay: Thalidomide as adjuvant therapy after curative resection for HCC, HCC recurrence by LHX4 expression group (Kaplan-Meier); format: in vivo, human; settings: for HCC recurrence rate (%) / Number of HCC recurrence patients: three-year
Method: Samples of liver tissue were obtained from 48 patients, who suffered HCC at stage II or III (defined by American Joint Committee on Cancer, AJCC) and underwent curative resection for the HCC. All of the patients were enrolled within 4 weeks after surgery. 27 of the patients received Thalidomide 200 mg/day and the others received a placebo 200 mg/day for 12 months or until HCC recurrence.
The sample of liver tissue from each patient includes tumorous tissue and non-tumorous tissue neighboring the tumorous tissue. The respective Lhx4 proteins in the tumorous and non-tumorous tissues of each patient were detected using western blot and then quantified by ImageJ software (published by the National Institutes of Health of United States of America). The quantified results of the Lhx4 proteins in the tumorous and non-tumorous tissues were respectively normalized based on the quantified results of β-actin in the tumorous and non-tumorous tissues of the corresponding patient to obtain the (protein) expression levels of the LHX4 gene in the tumorous and non-tumorous tissues of the patient.
For each and every patient, the expression level of the LHX4 gene in the tumorous tissue (called “T” hereinafter) was divided by the expression level of the LHX4 gene in the non-tumorous tissue (called “NT” hereinafter) to obtain a T/NT ratio, which represents the decreasing magnitude of the expression level of the LHX4 gene in the tumorous tissue when compared with the non-tumorous tissue.
In an embodiment, the correlation between the decreasing magnitude of the expression level of the LHX4 gene in the tumorous tissue of a patient and the therapeutic effect of Thalidomide on the liver cancer of the patient is indicated by the HCC recurrence of the patient. Specifically, the end date of observation of a patient's HCC recurrence is set as the date three years after the surgery for the liver cancer.
In an embodiment, the 48 patients were divided into two groups according the T/NT ratio to evaluate the therapeutic effect of Thalidomide on the patients. […]
Each of FIGS. 2A, 2B and 2C show the respective 3-year HCC recurrence-free survival days (from the date that the patient underwent the surgery for the liver cancer to the date of observing the HCC recurrence of the patient) of the patients, where the event in the curves is the first HCC recurrence of a patient after the surgery.
In an embodiment, for each of the 48 patients, the LHX4 expression level in the tumorous tissue was obtained through normalizing the quantified result of the western blot of the Lhx4 protein of the tumorous tissue based on a specific amount of β-actin in the tumorous tissue. After the normalization, the LHX4 expression levels in the tumorous tissue of all the patients, normalized by the same amount of β-actin, were obtained. […] Each of FIGS. 3A, 3B and 3C show the respective 3-year HCC recurrence-free survival days (from the date that the patient underwent the surgery for the liver cancer to the date of observing the HCC recurrence of the patient) of the patients, where the event of the curves is the first HCC recurrence in a patient after the surgery.

HCC [2] = settings: adjuvant therapy after surgical resection; placebo 33%; cited from earlier work
[3] = T/NT ratio < 0.2, 13 total patients
[4] = T/NT ratio ≧ 0.2, 14 total patients

## O=C1CCC(N2C(=O)c3ccccc3C2=O)C(=O)N1 (racemic) [Thalidomide, (RS)-2-(2,6-dioxopiperidin-3-yl)-1H-isoindole-1,3(2H)-dione]
HCC [1]; groups divided by arithmetic average of LHX4 expression levels in tumorous tissue, patients receiving Thalidomide
  mean 3-year HCC recurrence-free survival days, lower group compared with higher group: obviously delayed
HCC [1]; higher group, LHX4 expression level in tumorous tissue not lower than 0.17 (median), 14 patients, FIG. 3B/3C, P=0.567 vs placebo (535 days)
  mean 3-year HCC recurrence-free survival days: 466 days
HCC [1]; higher group, T/NT ratio not lower than 0.2, Thalidomide 200 mg/day, 14 patients, FIG. 1B/1C, P=0.687 vs placebo (535 days)
  mean 3-year HCC recurrence-free survival days: 521 days
HCC [1]; higher group, T/NT ratio not lower than 0.5, 5 patients, FIG. 2B/2C, P=0.272 vs placebo (493 days)
  mean 3-year HCC recurrence-free survival days: 344 days
HCC [1]; lower group, LHX4 expression level in tumorous tissue lower than 0.17 (median), 13 patients, FIG. 3A/3C, P=0.033 vs placebo (526 days)
  mean 3-year HCC recurrence-free survival days: 833 days
HCC [1]; lower group, T/NT ratio lower than 0.2, Thalidomide 200 mg/day, 13 patients, FIG. 1A/1C, P=0.06 vs placebo (526 days)
  mean 3-year HCC recurrence-free survival days: 744 days
HCC [1]; lower group, T/NT ratio lower than 0.5, 22 patients, FIG. 2A/2C, P=0.2 vs placebo (545 days)
  mean 3-year HCC recurrence-free survival days: 711 days
HCC [1]; [3]
  HCC recurrence rate (%): 38.5%
  Number of HCC recurrence patients: 5
HCC [1]; [4]
  HCC recurrence rate (%): 85.7%
  Number of HCC recurrence patients: 12
HCC [2]
  two-year HCC recurrence-free survival rate: 65%
